Where two headings read alike, the source gives them in different places. One block for each compound: values may come before it. Numbered stars: 1 amine (or outer) side, 2 acyl side, 3 side chain; on linkers, the order of the positions; unused ones are H or OH. Square brackets hold non-standard residues; d marks the D form. Peptide text beside a SMILES is read from it. ξ: configuration not given here. X1 = CC1O[C@@H](CCCc2ccc(CC(N[*:1])C(=O)[*:2])cc2)C(O)C(O)[C@@H]1O; ξR = N=C(N)NCCCC(N)C(=O)O; ξS = NC(CO)C(=O)O
What was measured:
selectin = settings: cited from earlier work
selectins [1] = settings: prior-art glycopeptide analogs; cited from earlier work
selectins [2] = settings: prior-art mimetics, Wong et al.; cited from earlier work
P-selectin [3] = target: T1, P-selectin (Homo sapiens, UniProt P16109); settings: read-out: IC50 for binding to P-selectin; cited from earlier work
T1 sequence (P16109 42-830): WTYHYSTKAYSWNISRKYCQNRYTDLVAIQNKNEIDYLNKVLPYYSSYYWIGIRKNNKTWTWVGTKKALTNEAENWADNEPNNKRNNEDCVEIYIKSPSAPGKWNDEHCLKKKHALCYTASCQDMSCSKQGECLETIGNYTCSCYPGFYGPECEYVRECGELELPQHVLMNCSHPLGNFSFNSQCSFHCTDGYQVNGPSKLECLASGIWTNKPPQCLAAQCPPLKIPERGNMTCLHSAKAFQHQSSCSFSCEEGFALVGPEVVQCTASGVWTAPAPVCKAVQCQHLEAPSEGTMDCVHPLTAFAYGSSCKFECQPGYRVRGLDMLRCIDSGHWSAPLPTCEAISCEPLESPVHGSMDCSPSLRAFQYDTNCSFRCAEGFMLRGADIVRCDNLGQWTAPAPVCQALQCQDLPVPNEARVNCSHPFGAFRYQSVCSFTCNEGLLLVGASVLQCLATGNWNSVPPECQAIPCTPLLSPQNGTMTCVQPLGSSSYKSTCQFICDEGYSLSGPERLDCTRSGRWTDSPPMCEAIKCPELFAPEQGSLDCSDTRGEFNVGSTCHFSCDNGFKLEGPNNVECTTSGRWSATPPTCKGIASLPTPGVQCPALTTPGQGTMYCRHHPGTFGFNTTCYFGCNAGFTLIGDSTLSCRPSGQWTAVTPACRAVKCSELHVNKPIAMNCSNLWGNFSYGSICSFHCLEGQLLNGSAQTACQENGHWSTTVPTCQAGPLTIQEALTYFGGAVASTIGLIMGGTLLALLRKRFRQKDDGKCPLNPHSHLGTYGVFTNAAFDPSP

E-selectin = target: T2, E-selectin (Homo sapiens, UniProt P16581); assay: HL60 cell adhesion assay on recombinant soluble E-selectin-IgG1 fusion protein; assay type: cell-based; settings: HL60 cell adhesion to E-selectin-IgG1
T2 construct: fusion proteins formed from the extracytoplasmatic domains of E- or P-selectin, respectively, and the constant region of human immunoglobulin of the IgG1 subclass; made in house; host or cells: COS-7 cells (transient transfection, culture supernatant)
T2 sequence (P16581 22-556): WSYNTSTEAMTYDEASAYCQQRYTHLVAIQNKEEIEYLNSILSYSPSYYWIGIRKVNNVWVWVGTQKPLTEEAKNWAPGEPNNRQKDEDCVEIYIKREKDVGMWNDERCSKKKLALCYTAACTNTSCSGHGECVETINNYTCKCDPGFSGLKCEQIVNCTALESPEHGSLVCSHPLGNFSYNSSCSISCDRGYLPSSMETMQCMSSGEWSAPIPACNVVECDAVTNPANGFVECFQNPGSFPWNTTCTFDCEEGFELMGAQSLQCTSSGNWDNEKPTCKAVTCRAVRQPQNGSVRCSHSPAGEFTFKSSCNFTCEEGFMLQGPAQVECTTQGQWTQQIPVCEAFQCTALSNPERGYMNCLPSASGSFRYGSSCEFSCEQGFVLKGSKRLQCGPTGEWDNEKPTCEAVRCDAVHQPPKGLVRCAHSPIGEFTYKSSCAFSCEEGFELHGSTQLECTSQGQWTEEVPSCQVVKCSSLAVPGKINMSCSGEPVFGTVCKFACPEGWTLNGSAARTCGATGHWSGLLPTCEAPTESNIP
Source text: In these assays, the ligands may be supplied in their natural form as surface structures on promyelocytic HL60 cells. Since HL60 cells contain ligands and adhesion molecules of very different specificity, the desired specificity of the assay must therefore be provided by the binding component. Preferably, the binding components used are recombinant, soluble, fusion proteins formed from the extracytoplasmatic domains of E- or P-selectin, respectively, and the constant region of human immunoglobulin of the IgG1 subclass. […] An example of a suitable negative control is a fusion protein formed between the extracytoplasmic domain of CD4 and the IgG constant region.
These fusion proteins are then used in a cell adhesion assay in which COS cells transfected with the recombinant fusion proteins are first bound to the surface of a microtiter plate. The compound to be tested is added to the wells of the microtiter platein varying concentrations, followed by HL60 cells. After a defined period of time, the wells of the microtiter plate are washed and the HL60 cells adhering to the plate are counted. In a preferred embodiment, the HL60 cells are prelabeled with a fluorescent dye to facilitate cell counting. The number of cells adhering to the plate allows quantification of the inhibitory properties of the compound under test. […]

P-selectin [4] = target: T3, P-selectin (Homo sapiens, UniProt P16109); assay: HL60 cell adhesion assay on recombinant soluble P-selectin-IgG1 fusion protein; assay type: cell-based; settings: HL60 cell adhesion to P-selectin-IgG1
T3 construct: fused on or other part: constant region (hinge-Fc) of human IgG1 at the C-terminus, used as a capture handle
T3 sequence (P16109 42-321 limits assumed): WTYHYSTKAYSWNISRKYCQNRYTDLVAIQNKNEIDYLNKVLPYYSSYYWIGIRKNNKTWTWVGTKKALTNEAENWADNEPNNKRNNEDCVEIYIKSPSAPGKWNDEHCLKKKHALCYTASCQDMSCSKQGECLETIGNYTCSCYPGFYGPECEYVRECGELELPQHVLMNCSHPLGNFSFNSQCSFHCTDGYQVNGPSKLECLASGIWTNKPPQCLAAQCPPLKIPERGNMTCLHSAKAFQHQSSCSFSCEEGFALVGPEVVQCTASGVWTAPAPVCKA
Source text: 5. […] In the course of this, the cells have the opportunity to adhere to the coated plastic.

[5] = system: myocardial reperfusion injuries; settings: animal experiments; cited from earlier work
[6] = system: P-selectin-dependent lung damage; settings: animal experiments; cited from earlier work

Compound: COC1OC(C)C(O)(CC(=O)CCCOC2(C(=O)O)CC(O)C(NC(C)=O)C([C@H](O)[C@H](O)CO)O2)C(O)C1O (some centres unmarked)
affinity for selectin binding (selectin): only low affinity

Compound: C[C@@H]1OC(CC(=O)C2CCC[C@H]2C(=O)N[C@@H](Cc2ccccc2)C(=O)O)[C@@H](O)[C@H](O)[C@@H]1O (some centres unmarked) [(2)]
IC50 (selectins [1]): ~1000 µM

Compound: C[C@@H]1OC(CCCCC2O[C@H](CO)[C@H](O)[C@H](OCC(=O)O)[C@H]2O)[C@@H](O)C(O)[C@@H]1O (some centres unmarked) [(3)]
IC50 (selectins [2]): 10000 to 20000 µM

Compound: C[C@@H]1O[C@@H](CC(=O)CO[C@H]2CC[C@@]3(C)C(CC[C@]4(C)[C@H]3C(=O)C=C3[C@@H]5C[C@@](C)(C(=O)O)CC[C@]5(C)CC[C@]34C)C2(C)C)[C@@H](O)[C@H](O)[C@@H]1O (some centres unmarked) [(4a)]
IC50 (P-selectin [3]): 750 µM

IC50 (E-selectin): 2000 µM | IC50 (P-selectin [4]): 2000 µM
Compound: C[C@@H]1O[C@@H](CCCc2ccc(CC(N)C(=O)O)cc2)[C@@H](O)[C@H](O)[C@@H]1O (some centres unmarked) [Compound 20]

IC50 (E-selectin): 2000 µM | IC50 (P-selectin [4]): 2000 µM
Compound: CC1O[C@@H](C/C=C/c2ccc(C(=O)O)cc2)C(O)[C@@H](O)[C@@H]1O (some centres unmarked) [Compound 23]

IC50 (P-selectin [4]): 3000 to 5000 µM
Compound: CC1O[C@@H](CCCc2ccc(CC(N)C(=O)NC(CCCNC(=N)N)C(=O)NCC(=O)N[C@@H](CC(=O)O)C(=O)NC(CO)C(=O)O)cc2)C(O)C(O)[C@@H]1O (stereo partly drawn) [Compound 36, Ser-Asp-Gly-Arg-[C-FucPhe]] (H-[X1][ξR]GD[ξS]-OH)

Compound: sialyl-Lewis-X [SLeX]
protection against myocardial reperfusion injuries [5]: used successfully | protection against P-selectin-dependent lung damage [6]: used successfully
